Laboratory results from the Kinase Knowledgebase extract (Sharma et al. 2016).
Where “and” joins values, the source holds several entries; their conditions need not be identical. Equal values may be shown once.

Experiments:
PIK3CB (Human) [1] = biological target: PIK3CB (Human) (UniProt P42338); test: Cell-Based Assay; details: jurkat
PIK3CB (Human) [2] = biological target: PIK3CB (Human) (UniProt P42338); test: Enzyme Assay
PIK3CA (human) [3] = biological target: PIK3CA (human) (UniProt P42336); test: Enzyme Assay
PIK3CG (human) = PIK3CG (human) (UniProt P48736); test: Enzyme Assay
[4] = biological target: PIK3CA (human), P42336 [I800L]; test: Enzyme Assay
PIK3CD (Human) [5] = biological target: PIK3CD (Human) (UniProt O00329); test: Enzyme Assay
PIK3CB (Human) [6] = biological target: PIK3CB (Human) (UniProt P42338); test: Cell-Based Assay; details: jurkat; remark: listed apart in the source
PIK3CA (human) [7] = biological target: PIK3CA (human) (UniProt P42336); test: Cell-Based Assay; details: jurkat
PIK3CD (Human) [8] = biological target: PIK3CD (Human) (UniProt O00329); test: Cell-Based Assay; details: jurkat

PIK3CD (Human), sequence (O00329 whole entry, looked up): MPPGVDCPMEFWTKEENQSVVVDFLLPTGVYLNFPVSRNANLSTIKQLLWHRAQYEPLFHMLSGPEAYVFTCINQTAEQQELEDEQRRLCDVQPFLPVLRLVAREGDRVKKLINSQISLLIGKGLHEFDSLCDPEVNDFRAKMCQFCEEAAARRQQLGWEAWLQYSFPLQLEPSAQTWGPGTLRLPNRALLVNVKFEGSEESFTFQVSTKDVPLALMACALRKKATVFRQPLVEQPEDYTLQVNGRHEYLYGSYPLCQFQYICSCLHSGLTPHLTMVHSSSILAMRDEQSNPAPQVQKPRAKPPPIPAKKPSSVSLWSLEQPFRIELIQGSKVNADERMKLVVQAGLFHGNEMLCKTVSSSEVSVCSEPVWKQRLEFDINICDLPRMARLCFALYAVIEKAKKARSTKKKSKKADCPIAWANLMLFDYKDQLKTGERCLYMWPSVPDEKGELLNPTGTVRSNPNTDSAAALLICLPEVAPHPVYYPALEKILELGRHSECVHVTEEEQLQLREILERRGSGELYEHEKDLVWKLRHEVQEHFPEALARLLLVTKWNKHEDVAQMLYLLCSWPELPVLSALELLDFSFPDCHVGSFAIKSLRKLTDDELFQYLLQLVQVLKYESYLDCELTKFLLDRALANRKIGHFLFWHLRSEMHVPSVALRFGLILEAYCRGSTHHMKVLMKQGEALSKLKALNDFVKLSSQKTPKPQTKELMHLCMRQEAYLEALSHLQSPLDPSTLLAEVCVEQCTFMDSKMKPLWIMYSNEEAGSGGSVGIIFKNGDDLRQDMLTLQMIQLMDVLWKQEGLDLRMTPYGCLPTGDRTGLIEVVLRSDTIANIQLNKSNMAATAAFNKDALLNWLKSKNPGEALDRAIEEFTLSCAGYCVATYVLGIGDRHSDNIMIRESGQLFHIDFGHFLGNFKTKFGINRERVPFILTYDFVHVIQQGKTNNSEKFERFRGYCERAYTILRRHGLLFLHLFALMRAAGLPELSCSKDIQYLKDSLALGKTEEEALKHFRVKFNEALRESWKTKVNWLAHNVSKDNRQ
PIK3CA (human), sequence (P42336 whole entry, looked up): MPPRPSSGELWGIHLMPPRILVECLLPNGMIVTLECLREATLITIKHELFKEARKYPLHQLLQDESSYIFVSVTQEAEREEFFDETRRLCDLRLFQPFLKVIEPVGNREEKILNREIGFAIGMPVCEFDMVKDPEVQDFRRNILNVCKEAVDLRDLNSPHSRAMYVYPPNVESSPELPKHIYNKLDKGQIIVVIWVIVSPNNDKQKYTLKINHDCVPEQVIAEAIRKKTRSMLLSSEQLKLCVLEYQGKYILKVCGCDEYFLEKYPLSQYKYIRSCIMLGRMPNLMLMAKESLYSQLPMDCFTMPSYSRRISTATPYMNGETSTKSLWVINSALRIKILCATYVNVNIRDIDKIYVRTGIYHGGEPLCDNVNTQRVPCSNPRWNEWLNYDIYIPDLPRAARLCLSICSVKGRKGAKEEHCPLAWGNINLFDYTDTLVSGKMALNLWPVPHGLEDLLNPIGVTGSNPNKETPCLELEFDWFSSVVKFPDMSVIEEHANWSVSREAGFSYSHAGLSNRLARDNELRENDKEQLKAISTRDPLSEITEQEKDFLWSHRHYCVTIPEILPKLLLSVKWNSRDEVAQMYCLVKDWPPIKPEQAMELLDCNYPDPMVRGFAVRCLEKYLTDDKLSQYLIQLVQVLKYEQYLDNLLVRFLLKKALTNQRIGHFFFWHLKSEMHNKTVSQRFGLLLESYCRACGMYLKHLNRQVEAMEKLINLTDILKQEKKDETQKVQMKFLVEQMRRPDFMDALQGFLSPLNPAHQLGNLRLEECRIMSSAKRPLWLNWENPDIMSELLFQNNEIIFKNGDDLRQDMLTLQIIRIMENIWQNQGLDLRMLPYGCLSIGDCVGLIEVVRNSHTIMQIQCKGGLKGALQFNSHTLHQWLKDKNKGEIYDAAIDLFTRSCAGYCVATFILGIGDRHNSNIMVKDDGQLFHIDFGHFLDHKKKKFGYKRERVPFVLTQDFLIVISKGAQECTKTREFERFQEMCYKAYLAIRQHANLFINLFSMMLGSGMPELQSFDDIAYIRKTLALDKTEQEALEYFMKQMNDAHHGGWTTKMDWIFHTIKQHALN
PIK3CB (Human), sequence (P42338 whole entry, looked up): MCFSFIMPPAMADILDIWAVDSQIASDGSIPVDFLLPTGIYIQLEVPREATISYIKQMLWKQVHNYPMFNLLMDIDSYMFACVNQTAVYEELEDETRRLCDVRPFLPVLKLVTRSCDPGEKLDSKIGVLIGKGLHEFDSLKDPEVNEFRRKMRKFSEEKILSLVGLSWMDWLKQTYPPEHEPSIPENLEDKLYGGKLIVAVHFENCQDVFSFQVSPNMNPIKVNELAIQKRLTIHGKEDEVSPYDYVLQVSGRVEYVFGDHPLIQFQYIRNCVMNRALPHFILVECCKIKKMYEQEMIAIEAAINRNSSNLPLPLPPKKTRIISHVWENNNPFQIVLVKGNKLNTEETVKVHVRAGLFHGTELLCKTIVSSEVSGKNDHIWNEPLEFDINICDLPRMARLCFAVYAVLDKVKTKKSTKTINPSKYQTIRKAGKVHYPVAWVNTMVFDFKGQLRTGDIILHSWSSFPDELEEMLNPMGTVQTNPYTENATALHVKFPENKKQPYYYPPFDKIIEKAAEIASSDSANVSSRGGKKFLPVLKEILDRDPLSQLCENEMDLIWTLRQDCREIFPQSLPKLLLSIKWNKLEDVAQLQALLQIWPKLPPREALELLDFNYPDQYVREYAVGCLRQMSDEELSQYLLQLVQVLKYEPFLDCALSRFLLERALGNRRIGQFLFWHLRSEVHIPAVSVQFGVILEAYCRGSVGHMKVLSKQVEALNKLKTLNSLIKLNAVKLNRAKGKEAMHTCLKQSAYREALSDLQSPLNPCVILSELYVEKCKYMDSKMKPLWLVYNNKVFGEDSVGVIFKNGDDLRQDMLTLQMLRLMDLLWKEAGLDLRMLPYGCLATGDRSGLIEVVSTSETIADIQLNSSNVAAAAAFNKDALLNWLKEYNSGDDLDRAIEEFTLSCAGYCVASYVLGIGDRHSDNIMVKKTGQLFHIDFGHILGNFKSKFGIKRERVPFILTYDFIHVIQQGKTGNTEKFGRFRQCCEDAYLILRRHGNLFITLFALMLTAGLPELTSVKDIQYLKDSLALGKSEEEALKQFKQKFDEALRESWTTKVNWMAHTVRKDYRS
PIK3CA (human), P42336 [I800L], sequence (P42336 whole entry I800L, looked up): as the sequence (P42336 whole entry, looked up) above, with I800L counted along it
PIK3CG (human), sequence (P48736 whole entry, looked up): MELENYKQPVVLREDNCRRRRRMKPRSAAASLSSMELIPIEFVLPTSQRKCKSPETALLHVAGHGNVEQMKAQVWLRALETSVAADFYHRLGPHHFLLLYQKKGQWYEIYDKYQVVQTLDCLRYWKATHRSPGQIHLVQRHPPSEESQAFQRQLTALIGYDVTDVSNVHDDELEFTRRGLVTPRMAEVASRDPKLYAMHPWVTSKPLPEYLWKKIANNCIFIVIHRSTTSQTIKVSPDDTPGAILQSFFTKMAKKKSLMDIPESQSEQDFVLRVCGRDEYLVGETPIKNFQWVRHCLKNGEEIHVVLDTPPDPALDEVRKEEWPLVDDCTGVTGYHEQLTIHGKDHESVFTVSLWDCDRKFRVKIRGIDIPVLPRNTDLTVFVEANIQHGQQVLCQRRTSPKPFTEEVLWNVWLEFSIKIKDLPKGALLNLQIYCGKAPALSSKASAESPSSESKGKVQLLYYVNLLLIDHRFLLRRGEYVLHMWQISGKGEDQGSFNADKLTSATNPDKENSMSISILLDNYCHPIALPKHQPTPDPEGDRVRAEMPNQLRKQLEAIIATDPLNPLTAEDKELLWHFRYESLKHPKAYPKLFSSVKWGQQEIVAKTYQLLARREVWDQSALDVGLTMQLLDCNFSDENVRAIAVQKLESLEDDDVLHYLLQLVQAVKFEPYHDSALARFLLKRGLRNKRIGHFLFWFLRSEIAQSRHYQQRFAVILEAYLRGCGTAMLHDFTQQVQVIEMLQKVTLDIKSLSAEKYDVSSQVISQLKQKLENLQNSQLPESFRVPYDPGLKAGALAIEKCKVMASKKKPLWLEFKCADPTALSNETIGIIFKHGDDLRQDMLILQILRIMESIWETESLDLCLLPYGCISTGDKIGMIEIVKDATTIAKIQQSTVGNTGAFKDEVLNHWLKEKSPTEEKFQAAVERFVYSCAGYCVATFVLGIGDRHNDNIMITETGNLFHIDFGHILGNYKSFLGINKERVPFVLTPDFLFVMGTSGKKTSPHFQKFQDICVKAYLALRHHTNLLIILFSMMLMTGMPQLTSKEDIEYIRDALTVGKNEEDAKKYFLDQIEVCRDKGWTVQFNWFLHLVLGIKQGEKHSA

IC50 (PIK3CB (Human) [1]): 9200 nM
IC50 (PIK3CB (Human) [2]): > 12000 nM
IC50 (PIK3CA (human) [3]): 886 nM
Kd (PIK3CA (human) [3]): 140 nM
IC50 (PIK3CG (human)): 1870 nM
Kd [4]: 190 nM
IC50 (PIK3CD (Human) [5]): 1290 nM
IC50 (PIK3CB (Human) [6]): 10000 nM
IC50 (PIK3CA (human) [7]): 1200 nM
IC50 (PIK3CD (Human) [8]): 3300 nM and 980 nM
Compound: COC(=O)Nc1ccc(-c2nc(N3CCOCC3)c3cnn(C4CCN(C(=O)OC)CC4)c3n2)cc1
